According to patent publication US9920010B2, “CXCR7 receptor modulators” (IDORSIA PHARMACEUTICALS LTD, priority 2013, dated 2018):

molecular target: T1, CXCR7 (Homo sapiens, UniProt P25106); assay: PathHunter CHO-K1 CXCR7 b-arrestin recruitment assay (CXCR7 agonistic activity); format: cell-based; details: PathHunter CHO-K1 CXCR7 b-arrestin cell line
T1 construct: host or cells: CHO-K1 (PathHunter CHO-K1 CXCR7 b-arrestin cell line, stably transfected)
Outline: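 Stable CHO-K1 line with C-terminally ProLink-tagged CXCR7 and β-arrestin 2–EA fusion; β-arrestin recruitment restores β-gal activity, read by chemiluminescence after 1 h RT detection. Cells seeded 24 h, starved in OPTIMEM 3–4 h, exposed to compounds 90 min at 37 °C in HBSS/HEPES/BSA. Geometric-mean EC50 from repeated measurements.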

T1 sequence (P25106 whole entry): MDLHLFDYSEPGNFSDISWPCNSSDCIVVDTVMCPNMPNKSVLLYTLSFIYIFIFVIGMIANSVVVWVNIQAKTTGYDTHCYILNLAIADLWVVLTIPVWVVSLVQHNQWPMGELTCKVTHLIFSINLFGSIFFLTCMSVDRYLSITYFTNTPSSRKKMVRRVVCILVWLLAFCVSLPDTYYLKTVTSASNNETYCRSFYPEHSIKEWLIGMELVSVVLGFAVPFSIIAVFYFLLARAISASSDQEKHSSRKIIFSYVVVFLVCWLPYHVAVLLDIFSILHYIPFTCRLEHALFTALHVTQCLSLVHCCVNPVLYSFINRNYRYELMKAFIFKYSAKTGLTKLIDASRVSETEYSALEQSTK
T1 sequence (P32121 whole entry partner): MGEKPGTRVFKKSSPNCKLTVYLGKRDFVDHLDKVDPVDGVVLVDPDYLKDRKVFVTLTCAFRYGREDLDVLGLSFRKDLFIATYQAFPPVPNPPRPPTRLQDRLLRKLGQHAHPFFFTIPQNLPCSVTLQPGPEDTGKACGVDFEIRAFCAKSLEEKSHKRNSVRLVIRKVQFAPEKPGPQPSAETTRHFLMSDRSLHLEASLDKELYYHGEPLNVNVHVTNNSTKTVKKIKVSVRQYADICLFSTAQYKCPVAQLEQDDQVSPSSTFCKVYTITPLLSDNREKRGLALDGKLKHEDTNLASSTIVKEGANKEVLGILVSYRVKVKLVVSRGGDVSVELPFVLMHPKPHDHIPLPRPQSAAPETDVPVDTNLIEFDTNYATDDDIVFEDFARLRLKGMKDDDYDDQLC

| Compound | EC50 [µM] |
| --- | --- |
| CCN1CCc2cccc(/C=C/C(=O)N(CCN(C)C)Cc3ccccc3C(F)(F)F)c2C1 [compound 550, (E)-N-(2-Dimethylamino-ethyl)-3-(2-ethyl-1,2,3,4-tetrahydro-isoquinolin-8-yl)-N-(2-trifluoromethyl-benzyl)-acrylamide] | 0.002 |
| Cc1csc(CN(CCN(C)C)C(=O)CNc2cccc3c2CCN(CC2CC2)C3)n1 [Example 266, 2-(2-Cyclopropylmethyl-1,2,3,4-tetrahydro-isoquinolin-5-ylamino)-N-(2-dimethylamino-ethyl)-N-(4-methyl-thiazol-2-ylmethyl)-acetamide] | 0.016 |
| CN(C)CCN(Cc1ncccc1C(F)(F)F)C(=O)CNc1cccc2c1CCN(CC1CC1)C2 [Example 47, 2-(2-Cyclopropylmethyl-1,2,3,4-tetrahydro-isoquinolin-5-ylamino)-N-(2-dimethylamino-ethyl)-N-(3-trifluoromethyl-pyridin-2-ylmethyl)-acetamide] | 0.002 |
| CCC(=O)N1CCc2c(cccc2NCC(=O)N(CCN(C)C)Cc2cccc(Cl)c2)C1 [Example 18, N-(3-Chloro-benzyl)-N-(2-dimethylamino-ethyl)-2-(2-propionyl-1,2,3,4-tetrahydro-isoquinolin-5-ylamino)-acetamide] | 0.061 |
| CCN1CCc2cccc(NCC(=O)N(Cc3ccccc3C(F)(F)F)C3CCOCC3)c2C1 [compound 519] | 0.25 |
| COCCN1CCc2c(CCC(=O)N(CCN(C)C)Cc3ncccc3Cl)cccc2C1 [Example 346, N-(3-Chloro-pyridin-2-ylmethyl)-N-(2-dimethylamino-ethyl)-3-[2-(2-methoxy-ethyl)-1,2,3,4-tetrahydro-isoquinolin-5-yl]-propionamide] | 0.073 |
| CCC(=O)N1CCc2c(cccc2NCC(=O)N(Cc2ccccc2)Cc2ccccn2)C1 [Example 25, N-Benzyl-2-(2-propionyl-1,2,3,4-tetrahydro-isoquinolin-5-ylamino)-N-pyridin-2-ylmethyl-acetamide] | 0.309 |
| CN(C)CCN(Cc1ccccc1C(F)(F)F)C(=O)CNc1cccc2c1CCN(CC1CC1)C2=O [Example 315, 2-(2-Cyclopropylmethyl-1-oxo-1,2,3,4-tetrahydro-isoquinolin-5-ylamino)-N-(2-dimethylamino-ethyl)-N-(2-trifluoromethyl-benzyl)-acetamide] | 0.005 |
| CC(O)CN(Cc1ccccc1C(F)(F)F)C(=O)CNc1cccc2c1CCN(CC1CC1)C2 (racemic) [Example 240, rac-2-(2-Cyclopropylmethyl-1,2,3,4-tetrahydro-isoquinolin-5-ylamino)-N-(2-hydroxy-propyl)-N-(2-trifluoromethyl-benzyl)-acetamide] | 0.015 |
| CCN1CCc2cccc(NCC(=O)N(Cc3ccccc3C(F)(F)F)C(C)c3ccn(CC)n3)c2C1 (racemic) [compound 521] | 0.269 |
| COCCN1CCc2c(/C=C/C(=O)N(Cc3ncccc3Cl)CC(C)(C)O)cccc2C1 [Example 328, (E)-N-(3-Chloro-pyridin-2-ylmethyl)-N-(2-hydroxy-2-methyl-propyl)-3-[2-(2-methoxy-ethyl)-1,2,3,4-tetrahydro-isoquinolin-5-yl]-acrylamide] | 0.293 |
| CCC(=O)N1CCc2c(cccc2NCC(=O)N(CCN(CC)CC)Cc2ccccc2)C1 [Example 27, N-Benzyl-N-(2-diethylamino-ethyl)-2-(2-propionyl-1,2,3,4-tetrahydro-isoquinolin-5-ylamino)-acetamide] | 0.019 |
| O=C(CNc1cccc2c1CCN(C(=O)[C@@H]1C[C@@H]1F)C2)N(CCN1CCC(F)(F)CC1)Cc1ncccc1Cl (racemic) [Example 294, rac-N-(3-Chloro-pyridin-2-ylmethyl)-N-[2-(4,4-difluoro-piperidin-1-yl)-ethyl]-2-[2-((1S*,2S*)-2-fluoro-cyclopropanecarbonyl)-1,2,3,4-tetrahydro-isoquinolin-5-ylamino]-acetamide] | 0.237 |
| CN(C)CCN(Cc1ccccc1C(F)(F)F)C(=O)CCc1cccc2c1CN(CC1CC1)CC2 [compound 454, 3-(2-Cyclopropylmethyl-1,2,3,4-tetrahydro-isoquinolin-8-yl)-N-(2-dimethylamino-ethyl)-N-(2-trifluoromethyl-benzyl)-propionamide] | 0.003 |
| CN(C)CCN(Cc1ccccc1C(F)(F)F)C(=O)CNc1cccc2c1CCN(CCCF)C2 [Example 574, N-(2-Dimethylamino-ethyl)-2-[2-(3-fluoro-propyl)-1,2,3,4-tetrahydro-isoquinolin-5-ylamino]-N-(2-trifluoromethyl-benzyl)-acetamide] | 0.006 |
| CN(CCN(Cc1ncccc1C(F)(F)F)C(=O)CNc1cccc2c1CCN(CC1CC1)C2)CC(F)(F)F [Example 280, 2-(2-Cyclopropylmethyl-1,2,3,4-tetrahydro-isoquinolin-5-ylamino)-N-{2-[methyl-(2,2,2-trifluoro-ethyl)-amino]-ethyl}-N-(3-trifluoromethyl-pyridin-2-ylmethyl)-acetamide] | 0.028 |
| O=C(CNc1cccc2c1CCN(CC1CC1)C2)N(CCN1CCC(F)(F)CC1)Cc1ncccc1C(F)(F)F [Example 279, 2-(2-Cyclopropylmethyl-1,2,3,4-tetrahydro-isoquinolin-5-ylamino)-N-[2-(4,4-difluoro-piperidin-1-yl)-ethyl]-N-(3-trifluoromethyl-pyridin-2-ylmethyl)-acetamide] | 0.008 |
| O=C(CNc1cccc2c1CCN(CC1CC1)C2)N(Cc1ccccc1C(F)(F)F)CC1CCNC1 (racemic) [compound 441] | 0.005 |
| C[C@H](Nc1cccc2c1CCN(CC1CC1)C2)C(=O)N(CCN(C)C)Cc1ccccc1C(F)(F)F [Example 291, (S)-2-(2-Cyclopropylmethyl-1,2,3,4-tetrahydro-isoquinolin-5-ylamino)-N-(2-dimethylamino-ethyl)-N-(2-trifluoromethyl-benzyl)-propionamide] | 0.092 |
| CN(C)CCN(Cc1ccccc1C(F)(F)F)C(=O)CNc1ccc(F)c2c1CCN(CC1CC1)C2 [Example 288, 2-(2-Cyclopropylmethyl-8-fluoro-1,2,3,4-tetrahydro-isoquinolin-5-ylamino)-N-(2-dimethylamino-ethyl)-N-(2-trifluoromethyl-benzyl)-acetamide] | 0.023 |
| CC(C)C(C)N1CCc2c(cccc2NCC(=O)N(CCN(C)C)Cc2ccccc2C(F)(F)F)C1 (racemic) [Example 355, rac-N-(2-Dimethylamino-ethyl)-2-[2-(1,2-dimethyl-propyl)-1,2,3,4-tetrahydro-isoquinolin-5-ylamino]-N-(2-trifluoromethyl-benzyl)-acetamide] | 0.01 |
| CCN1CCc2c(CCC(=O)N(Cc3ccccc3C(F)(F)F)C3CCN(C)CC3)cccc2C1 [compound 159] | 0.072 |
| CC(C)CCN(Cc1ccccc1)C(=O)COc1cccc2c1CCN(CC1CC1)C2 [compound 163, N-Benzyl-2-(2-cyclopropylmethyl-1,2,3,4-tetrahydro-isoquinolin-5-yloxy)-N-(3-methyl-butyl)-acetamide] | 0.017 |
| CN(C)CCN(Cc1ccccc1)C(=O)COc1cccc2c1CCN(C)C2 [compound 164] | 0.084 |
| CN(C)CCN(Cc1ccncn1)C(=O)CNc1cccc2c1CCN(CC1CC1)C2 [Example 255, 2-(2-Cyclopropylmethyl-1,2,3,4-tetrahydro-isoquinolin-5-ylamino)-N-(2-dimethylamino-ethyl)-N-pyrimidin-4-ylmethyl-acetamide] | 0.39 |
